The values that follow come from PubChem BioAssay (NCI).

Several values for one entry are separate records, joined by “and”; a condition that tells them apart may be missing. Equal entries are not always repeated.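 Five concentrations, 48 hours, 96-well plates. GI50 marks 50% less growth. TGI marks complete inhibition of growth.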

Assay in all cases: NCI-60 cell line screen, 48 h
In assay [1] the test system is HCT-116 colon.
For assay [2], the system named is OVCAR-4 ovarian.
Assay [3] has as its system MCF7 breast.
For assay [4], the system named is SN12C renal.
Assay [5] relates to NCI-H226 lung.
Assay [6] relates to T-47D breast.
Assay [7] relates to DU-145 prostate.
Assay [8] relates to TK-10 renal.
The test system of assay [9] is SF-268 CNS.
For assay [10], the system named is SNB-75 CNS.

Take `CC(C)(C)c1ccc(Oc2ccc(N)cn2)cc1`: the GI50 in [1] is 47.5 µM; in assay [2], 32.8 µM; in assay [3], 46.5 µM; in [4], 4.64 µM; in assay [5], 44.5 µM; in assay [6] it was 26.2 µM. Moreover, the GI50 in assay [7] was 38.2 µM; in assay [8], over 100 µM; in assay [9], 5.77 µM; in assay [10], 10.9 µM. Besides, the TGI in assay [1], in assay [2], in [3], in [4], in assay [5] and in [6] was over 100 µM each time. In addition, the TGI in assay [7], in [8], in [9] and in assay [10] was over 100 µM in each case.

For `CNC(=O)c1cc(Oc2ccc(NC(=O)Nc3ccc(Cl)c(C(F)(F)F)c3)c(F)c2)ccn1`, the GI50 is 0.944 µM and 0.792 µM in assay [1]; 2.56 µM and 2.74 µM in assay [2]; 2.12 µM and 2.29 µM in assay [3]; 2.35 µM and 2.24 µM in assay [4]; 2.15 µM and 0.988 µM in assay [5]; 2.08 µM and 1.53 µM in assay [6]. Further, the GI50 in assay [7] is 3.46 µM and 3.96 µM; in assay [8], 3.5 µM and 3.03 µM; in assay [9], 2.93 µM and 3.02 µM; in [10], 1.71 µM and 1.67 µM. In addition, the TGI in assay [1] was 10.8 µM and 8.8 µM; in assay [2], 19.7 µM and > 10 µM; in assay [3] it was 6.88 µM and 9.02 µM; in assay [4] it was 12.1 µM and > 10 µM; in assay [5], 8.01 µM and 8.05 µM; in assay [6], 9.1 µM and 7.49 µM. Further, the TGI in [7] was over 100 µM; in [8], 27.8 µM and > 10 µM; in assay [9], 14 µM and > 10 µM; in assay [10] it was 7.01 µM and > 10 µM.

Consider `COc1cccc(CC(C)=C(c2ccc(OCCN3CCCCC3)cc2)c2ccc(OCCN3CCCCC3)cc2)c1`, for which the GI50 in [1] is 2.25 µM; in assay [2], 1.95 µM; in assay [3], 0.728 µM; in [4] it was 2.02 µM; in [5], 2.33 µM; in assay [6] it was 1.58 µM. Besides, the GI50 in [7] was 2.11 µM; in assay [8], 2.36 µM; in [9], 2.08 µM; in assay [10] it was 1.77 µM. Besides, the TGI in assay [1] was determined as 4.26 µM; in assay [2] it was 4.03 µM; in [3], 2.81 µM; in assay [4] it was 4.04 µM; in assay [5], 5.12 µM; in assay [6] it was 4.06 µM. For the same molecule, the TGI in assay [7] turned out to be 4.26 µM; in [8] it was 4.54 µM; in [9] it was 4.32 µM; in [10] it was 3.83 µM.

With `C[C@]12CC[C@H]3[C@@H](CC=C4C[C@@H](N5CCCC5)CC[C@@]43C)[C@@H]1C/C(=C\c1cccc(OCCN3CCOCC3)c1)[C@@H]2O`, the GI50 in [1] was 1.66 µM; in assay [2] it was 13.3 µM; in assay [3], 19.7 µM; in [4] it was 25.9 µM; in [5] it was 22 µM; in [6], 2.67 µM. In addition, the GI50 in [7] is 1.85 µM; in assay [8], 4.15 µM; in assay [9], 13.3 µM; in assay [10], 14.6 µM. Moreover, the TGI was 5.13 µM in [1]; 55.2 µM in assay [2]; 98.1 µM in assay [3]; over 100 µM in assay [4]; 53.8 µM in assay [5]; over 100 µM in [6]. In addition, the TGI was over 100 µM in assay [7], 46.7 µM in assay [8], over 100 µM in assay [9] and 34.3 µM in [10].

With `O=C(CCCN1CCC(O)(c2ccc(Cl)cc2)CC1)c1ccc(F)cc1`, the TGI in [1] is 33.6 µM; in assay [2], over 100 µM; in assay [3], over 100 µM; in [4] it was over 100 µM; in assay [5], over 100 µM; in [6] it was over 100 µM. Also, the TGI in [7] was over 100 µM; in assay [8], over 100 µM; in [9] it was over 100 µM; in [10] it was 68.9 µM.

Consider `Cc1ccc(/C=N/Nc2nc(Nc3ccccc3)nc(-n3nc(C)cc3C)n2)cc1`, for which the GI50 in assay [1] was 3.18 µM; in [2], 3.06 µM; in [3] it was 2.89 µM; in [4] it was 3.11 µM; in [5] it was 4.88 µM; in [6], 2.55 µM. Moreover, the GI50 in assay [7] is 5.45 µM; in [8], 3.52 µM; in assay [9], 4.42 µM; in assay [10], 10.9 µM. Also, the TGI was determined as 11.7 µM in assay [1]; 25.5 µM in assay [2]; 10.6 µM in assay [3]; 92.4 µM in assay [4]; 37.7 µM in assay [5]; 7.41 µM in assay [6]. For the same molecule, the TGI in assay [7] was over 100 µM; in assay [8], 22.9 µM; in assay [9] it was over 100 µM; in assay [10], over 100 µM.

As for `CC1=C2[C@@H](CC1)[C@]1(C)O[C@@](C(C)C)(C[C@H]1OC(=O)CO)[C@H]2OC(=O)C1CC1c1ccccc1` (stereo not given in full), the GI50 is 17.7 µM in [1]; 13 µM in assay [2]; 8.98 µM in assay [3]; 9.36 µM in [4]; 16.2 µM in [5]; 4.16 µM in assay [6]. Moreover, the GI50 in assay [7] was 14.6 µM; in [8] it was 16.6 µM; in [9], 13 µM; in assay [10], 13.7 µM. Moreover, the TGI in assay [1] was 33.2 µM; in assay [2], 26.9 µM; in assay [3], 27.8 µM; in assay [4], 27.6 µM; in assay [5], 35.7 µM; in assay [6] it was 21.6 µM. Also, the TGI in [7] worked out at 27.9 µM; in assay [8], 31.6 µM; in assay [9], 27.9 µM; in assay [10] it was 30.4 µM.

As to `COC(=O)c1ccc(CN2C(=O)C(Cl)=C(Nc3cccc(Cl)c3C)C2=O)cc1`, the GI50 is 4.44 µM in [1]; 26.5 µM in assay [2]; 35.6 µM in assay [3]; 18.2 µM in [4]; 11 µM in [5]; over 100 µM in assay [6]. In addition, the GI50 was 29.1 µM in [7], 47.8 µM in assay [8], 45.3 µM in [9] and 14.8 µM in assay [10]. The TGI in assay [1] was over 100 µM; in [2] it was over 100 µM; in [3], over 100 µM; in assay [4] it was 55.4 µM; in assay [5] it was over 100 µM; in assay [6], over 100 µM. For the same molecule, the TGI in assay [7] is over 100 µM; in assay [8] it was over 100 µM; in [9], over 100 µM; in assay [10], 95 µM.
